The results in this text go back to patent US9340590B2 (priority 2011, dated 2016).

pIC50: −log10 of the molar value. Positions of bridges follow the written chain, without caps; N, C: chain ends. Non-standard residues stand in square brackets, D forms with d. Residues, ends and D or L forms follow the SMILES beside them. Trp(1-Me) = Cn1cc(C[C@H](N)C(=O)O)c2ccccc21; 1Nal = N[C@@H](Cc1cccc2ccccc12)C(=O)O

What is called pIC50 is −log10 of the IC50, conventionally taken in molar units.

Common to all, as to experiment: cell-based
In one experiment the target is hNav1.7 (Homo sapiens, UniProt Q15858). The note with it: Nav1.7 Use IC50.
In the next experiment the target is hNav1.3 (Homo sapiens, UniProt Q9NY46). In kind it is cell-based. As to conditions: Nav1.3 Use IC50.
The target in the next experiment is hNav1.5 (Homo sapiens, UniProt Q14524).
Sequence of hNav1.5 (Q14524 whole entry, looked up): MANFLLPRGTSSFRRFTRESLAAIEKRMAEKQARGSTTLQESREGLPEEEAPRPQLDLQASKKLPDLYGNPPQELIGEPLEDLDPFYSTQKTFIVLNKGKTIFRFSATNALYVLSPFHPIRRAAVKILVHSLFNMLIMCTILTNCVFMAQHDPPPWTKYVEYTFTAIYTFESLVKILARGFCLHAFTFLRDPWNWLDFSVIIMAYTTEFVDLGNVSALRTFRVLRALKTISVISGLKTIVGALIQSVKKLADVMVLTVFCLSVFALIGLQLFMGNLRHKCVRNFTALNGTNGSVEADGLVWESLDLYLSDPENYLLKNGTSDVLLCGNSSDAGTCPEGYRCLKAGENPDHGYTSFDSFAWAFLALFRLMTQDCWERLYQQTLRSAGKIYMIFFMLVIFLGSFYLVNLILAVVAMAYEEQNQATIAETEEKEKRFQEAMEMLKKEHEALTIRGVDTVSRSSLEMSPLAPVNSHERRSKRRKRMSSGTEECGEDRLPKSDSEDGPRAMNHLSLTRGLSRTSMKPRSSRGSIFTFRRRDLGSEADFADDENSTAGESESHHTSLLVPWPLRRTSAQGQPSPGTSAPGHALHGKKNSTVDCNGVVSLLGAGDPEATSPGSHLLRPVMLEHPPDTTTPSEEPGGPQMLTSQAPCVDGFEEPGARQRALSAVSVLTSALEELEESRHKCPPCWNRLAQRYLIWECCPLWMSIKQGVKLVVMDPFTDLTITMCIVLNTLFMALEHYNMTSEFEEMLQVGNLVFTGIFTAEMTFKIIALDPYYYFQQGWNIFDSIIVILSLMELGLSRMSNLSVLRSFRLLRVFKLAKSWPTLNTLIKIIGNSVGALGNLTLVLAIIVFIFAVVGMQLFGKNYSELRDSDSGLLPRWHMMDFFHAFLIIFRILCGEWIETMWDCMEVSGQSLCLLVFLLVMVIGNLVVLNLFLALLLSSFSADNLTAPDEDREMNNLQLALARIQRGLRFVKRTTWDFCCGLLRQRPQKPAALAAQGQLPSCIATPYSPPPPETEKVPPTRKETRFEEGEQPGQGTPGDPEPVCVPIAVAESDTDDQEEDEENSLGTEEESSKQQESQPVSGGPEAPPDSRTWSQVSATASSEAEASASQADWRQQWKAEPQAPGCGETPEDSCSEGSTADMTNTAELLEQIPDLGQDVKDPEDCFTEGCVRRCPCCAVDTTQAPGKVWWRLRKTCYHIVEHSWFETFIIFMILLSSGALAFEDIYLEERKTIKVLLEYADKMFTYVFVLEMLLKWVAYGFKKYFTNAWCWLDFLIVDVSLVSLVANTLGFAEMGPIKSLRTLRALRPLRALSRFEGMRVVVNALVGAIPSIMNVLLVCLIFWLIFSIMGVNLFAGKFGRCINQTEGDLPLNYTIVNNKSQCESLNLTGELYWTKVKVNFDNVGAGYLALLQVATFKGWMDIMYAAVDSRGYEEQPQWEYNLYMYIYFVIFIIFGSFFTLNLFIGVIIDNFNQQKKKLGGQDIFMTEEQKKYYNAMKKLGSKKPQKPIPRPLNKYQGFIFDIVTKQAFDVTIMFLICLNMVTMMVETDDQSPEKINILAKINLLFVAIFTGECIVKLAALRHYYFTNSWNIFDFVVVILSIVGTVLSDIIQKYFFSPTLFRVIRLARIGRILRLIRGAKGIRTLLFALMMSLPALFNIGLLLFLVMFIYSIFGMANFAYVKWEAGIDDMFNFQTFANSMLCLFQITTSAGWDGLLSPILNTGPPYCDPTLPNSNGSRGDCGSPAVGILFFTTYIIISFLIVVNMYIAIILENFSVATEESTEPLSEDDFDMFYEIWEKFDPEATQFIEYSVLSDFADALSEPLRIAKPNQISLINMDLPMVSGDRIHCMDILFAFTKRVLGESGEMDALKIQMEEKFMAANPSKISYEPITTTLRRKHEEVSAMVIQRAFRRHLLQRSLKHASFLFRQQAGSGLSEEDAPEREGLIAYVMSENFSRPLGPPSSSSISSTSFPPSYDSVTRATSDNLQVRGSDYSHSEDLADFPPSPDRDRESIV

Sequence of hNav1.7 (Q15858 whole entry, looked up): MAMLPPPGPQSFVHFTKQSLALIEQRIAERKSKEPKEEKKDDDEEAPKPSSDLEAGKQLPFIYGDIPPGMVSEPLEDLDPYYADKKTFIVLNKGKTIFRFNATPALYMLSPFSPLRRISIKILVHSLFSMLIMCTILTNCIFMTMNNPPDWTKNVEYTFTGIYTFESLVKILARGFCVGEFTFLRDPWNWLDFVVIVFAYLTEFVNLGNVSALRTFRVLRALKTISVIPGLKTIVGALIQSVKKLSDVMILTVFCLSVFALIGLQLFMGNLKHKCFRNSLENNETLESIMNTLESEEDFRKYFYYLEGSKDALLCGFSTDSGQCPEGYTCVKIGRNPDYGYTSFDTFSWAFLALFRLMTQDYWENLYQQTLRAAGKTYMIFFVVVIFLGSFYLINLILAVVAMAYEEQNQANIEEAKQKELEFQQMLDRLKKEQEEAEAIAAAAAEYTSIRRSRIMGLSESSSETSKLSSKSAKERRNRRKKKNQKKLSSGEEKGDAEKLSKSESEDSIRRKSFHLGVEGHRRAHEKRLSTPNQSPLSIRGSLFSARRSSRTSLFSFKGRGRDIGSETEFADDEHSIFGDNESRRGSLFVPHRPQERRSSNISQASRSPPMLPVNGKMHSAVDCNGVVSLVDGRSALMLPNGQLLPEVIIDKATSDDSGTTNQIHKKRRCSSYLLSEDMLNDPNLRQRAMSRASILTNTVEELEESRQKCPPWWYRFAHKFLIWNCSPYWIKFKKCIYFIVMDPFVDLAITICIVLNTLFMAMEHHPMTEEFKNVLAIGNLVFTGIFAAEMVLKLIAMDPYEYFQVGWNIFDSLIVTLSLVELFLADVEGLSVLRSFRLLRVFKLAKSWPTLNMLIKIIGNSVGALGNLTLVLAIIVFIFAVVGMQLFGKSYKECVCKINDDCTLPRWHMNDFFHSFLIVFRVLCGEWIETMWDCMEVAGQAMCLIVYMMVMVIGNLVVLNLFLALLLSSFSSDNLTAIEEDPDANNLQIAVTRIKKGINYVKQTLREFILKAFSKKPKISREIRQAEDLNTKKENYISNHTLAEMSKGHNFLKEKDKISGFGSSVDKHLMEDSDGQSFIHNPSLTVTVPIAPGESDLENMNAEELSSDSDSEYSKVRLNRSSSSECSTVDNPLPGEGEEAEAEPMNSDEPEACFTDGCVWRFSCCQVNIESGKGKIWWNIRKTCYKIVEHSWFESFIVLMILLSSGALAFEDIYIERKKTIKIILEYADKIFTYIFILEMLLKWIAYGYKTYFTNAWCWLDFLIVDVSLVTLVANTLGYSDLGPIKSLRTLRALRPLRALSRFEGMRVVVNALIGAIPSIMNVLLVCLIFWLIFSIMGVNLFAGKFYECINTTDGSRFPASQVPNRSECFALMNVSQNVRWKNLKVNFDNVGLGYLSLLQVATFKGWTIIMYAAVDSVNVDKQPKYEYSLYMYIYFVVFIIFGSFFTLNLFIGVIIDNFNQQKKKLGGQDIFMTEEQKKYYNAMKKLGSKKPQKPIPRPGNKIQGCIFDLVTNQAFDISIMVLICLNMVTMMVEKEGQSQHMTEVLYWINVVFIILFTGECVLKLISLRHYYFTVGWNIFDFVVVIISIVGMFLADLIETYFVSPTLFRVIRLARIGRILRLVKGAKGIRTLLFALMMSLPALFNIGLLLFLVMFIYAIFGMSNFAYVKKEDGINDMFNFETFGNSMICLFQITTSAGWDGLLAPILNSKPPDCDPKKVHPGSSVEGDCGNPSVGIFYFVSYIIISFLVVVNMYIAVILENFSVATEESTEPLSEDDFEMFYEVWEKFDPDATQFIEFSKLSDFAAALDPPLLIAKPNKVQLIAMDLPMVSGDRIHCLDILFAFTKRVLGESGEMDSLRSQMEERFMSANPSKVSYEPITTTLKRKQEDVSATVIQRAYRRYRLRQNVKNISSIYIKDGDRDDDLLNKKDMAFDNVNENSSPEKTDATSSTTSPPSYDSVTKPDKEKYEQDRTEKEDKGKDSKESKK

As to `CC[C@H](C)[C@@H]1NC(=O)[C@@H]2CSSC[C@@H]3NC(=O)[C@H](C(C)C)NC(=O)[C@H](CC(C)C)NC(=O)[C@H](CC(N)=O)NC(=O)[C@@H]4CCCN4C(=O)[C@H](CCCNC(=N)N)NC(=O)[C@H](CSSC[C@H](NC(=O)[C@@H](N)CC(=O)O)C(=O)N[C@@H](CC(C)C)C(=O)NCC(=O)N[C@@H](Cc4ccccc4)C(=O)N[C@@H](CCSC)C(=O)N[C@@H](CCCNC(=N)N)C(=O)N[C@@H](CCCCN)C(=O)N2)NC(=O)[C@H](CSSC[C@@H](C(=O)N[C@@H](CCCCN)C(=O)N[C@@H](Cc2ccc(O)cc2)C(=O)N[C@@H](Cc2cn(C)c4ccccc24)C(=O)N[C@@H](Cc2ccccc2)C(N)=O)NC(=O)[C@H](Cc2c[nH]c4ccccc24)NC(=O)[C@H](CCCCN)NC(=O)[C@H](Cc2c[nH]cn2)NC(=O)[C@H]([C@@H](C)O)NC(=O)[C@H](CCCNC(=N)N)NC(=O)[C@H](CO)NC3=O)NC(=O)[C@H](CCCCN)NC(=O)[C@H](CC(=O)O)NC(=O)[C@H](CC(N)=O)NC(=O)[C@H](CC(=O)O)NC(=O)[C@@H]2CCCN2C1=O` [[1′NMeW33]GpTx-1(1-34)] (H-DCLGFMRKCIPDNDKCCRPNLVCSRTHKWCKY[Trp(1-Me)]F-NH2; disulfide 2-17, 9-23, 16-30), the figures for the pIC50 at hNav1.7, at hNav1.3 and at hNav1.5 were 7.27, 7.43 and 5.02, respectively.

Turning to `CC[C@H](C)[C@@H]1NC(=O)[C@@H]2CSSC[C@@H]3NC(=O)[C@H](C(C)C)NC(=O)[C@H](CC(C)C)NC(=O)[C@H](CC(N)=O)NC(=O)[C@@H]4CCCN4C(=O)[C@H](CCCNC(=N)N)NC(=O)[C@H](CSSC[C@H](NC(=O)[C@@H](N)CC(=O)O)C(=O)N[C@@H](CC(C)C)C(=O)NCC(=O)N[C@@H](C)C(=O)N[C@@H](CCSC)C(=O)N[C@@H](CCCNC(=N)N)C(=O)N[C@@H](CCCCN)C(=O)N2)NC(=O)[C@H](CSSC[C@@H](C(=O)N[C@@H](CCCCN)C(=O)N[C@@H](Cc2ccc(O)cc2)C(=O)N[C@H](C(=O)N[C@@H](Cc2ccccc2)C(N)=O)C(C)C)NC(=O)[C@H](Cc2c[nH]c4ccccc24)NC(=O)[C@H](CCCNC(=N)N)NC(=O)[C@H](Cc2c[nH]cn2)NC(=O)[C@H]([C@@H](C)O)NC(=O)[C@H](CCCNC(=N)N)NC(=O)[C@H](CO)NC3=O)NC(=O)[C@H](CCCCN)NC(=O)[C@H](CC(=O)O)NC(=O)[C@H](CC(N)=O)NC(=O)[C@H](CC(=O)O)NC(=O)[C@@H]2CCCN2C1=O` [[Ala5;Arg28]GpTx-1(1-34)] (H-DCLGAMRKCIPDNDKCCRPNLVCSRTHRWCKYVF-NH2; disulfide 2-17, 9-23, 16-30), the results for the pIC50 against hNav1.7, against hNav1.3 and on hNav1.5 were 7.11, 6.36 and less than 5.00, respectively.

In the case of `CC[C@H](C)[C@@H]1NC(=O)[C@@H]2CSSC[C@@H]3NC(=O)[C@H](C(C)C)NC(=O)[C@H](CC(C)C)NC(=O)[C@H](CC(N)=O)NC(=O)[C@@H]4CCCN4C(=O)[C@H](CCCNC(=N)N)NC(=O)[C@H](CSSC[C@H](NC(=O)[C@@H](N)CC(=O)O)C(=O)N[C@@H](CC(C)C)C(=O)NCC(=O)N[C@@H](Cc4ccccc4)C(=O)N[C@@H](CCSC)C(=O)N[C@@H](CCCNC(=N)N)C(=O)N[C@@H](CCCCN)C(=O)N2)NC(=O)[C@H](CSSC[C@@H](C(=O)N[C@@H](CCCCN)C(=O)N[C@@H](Cc2ccc(O)cc2)C(=O)N[C@@H](CCC(=O)O)C(=O)N[C@@H](Cc2ccccc2)C(N)=O)NC(=O)[C@H](Cc2c[nH]c4ccccc24)NC(=O)[C@H](CCCCN)NC(=O)[C@H](Cc2cnc[nH]2)NC(=O)[C@H]([C@@H](C)O)NC(=O)[C@H](CCCNC(=N)N)NC(=O)[C@H](CO)NC3=O)NC(=O)[C@H](CCCCN)NC(=O)[C@H](CC(=O)O)NC(=O)[C@H](CC(N)=O)NC(=O)[C@H](CC(=O)O)NC(=O)[C@@H]2CCCN2C1=O` [[Glu33]GpTx-1(1-34)] (H-DCLGFMRKCIPDNDKCCRPNLVCSRTHKWCKYEF-NH2; disulfide 2-17, 9-23, 16-30), the pIC50 at hNav1.7 was 7.57; on hNav1.3, 7.28; on hNav1.5, less than 5.00.

`CC[C@H](C)[C@@H]1NC(=O)[C@@H]2CSSC[C@@H]3NC(=O)[C@H](C(C)C)NC(=O)[C@H](CC(C)C)NC(=O)[C@H](CC(N)=O)NC(=O)[C@@H]4CCCN4C(=O)[C@H](CCCNC(=N)N)NC(=O)[C@H](CSSC[C@H](NC(=O)[C@@H](N)CC(=O)O)C(=O)N[C@@H](CC(C)C)C(=O)NCC(=O)N[C@@H](C)C(=O)N[C@@H](CCSC)C(=O)N[C@@H](CCCNC(=N)N)C(=O)N[C@@H](CCCCN)C(=O)N2)NC(=O)[C@H](CSSC[C@@H](C(=O)N[C@@H](CCCCN)C(=O)N[C@@H](Cc2c[nH]c4ccccc24)C(=O)N[C@H](C(=O)N[C@@H](Cc2ccccc2)C(N)=O)C(C)C)NC(=O)[C@H](Cc2c[nH]c4ccccc24)NC(=O)[C@H](CCCCN)NC(=O)[C@H](Cc2c[nH]cn2)NC(=O)[C@H]([C@@H](C)O)NC(=O)[C@H](CCCNC(=N)N)NC(=O)[C@H](CO)NC3=O)NC(=O)[C@H](CCCCN)NC(=O)[C@H](CC(=O)O)NC(=O)[C@H](CC(N)=O)NC(=O)[C@H](CC(=O)O)NC(=O)[C@@H]2CCCN2C1=O` [[Ala5;Trp32]GpTx-1(1-34)] (H-DCLGAMRKCIPDNDKCCRPNLVCSRTHKWCKWVF-NH2; disulfide 2-17, 9-23, 16-30): the pIC50 on hNav1.7 is 6.99; on hNav1.3 it was 5.53; at hNav1.5 it was less than 5.00.

Consider `CC[C@H](C)[C@@H]1NC(=O)[C@@H]2CSSC[C@@H]3NC(=O)[C@H](C(C)C)NC(=O)[C@H](CC(C)C)NC(=O)[C@H](CC(N)=O)NC(=O)[C@@H]4CCCN4C(=O)[C@H](CCCNC(=N)N)NC(=O)[C@H](CSSC[C@H](NC(=O)[C@@H](N)CC(=O)O)C(=O)N[C@@H](CC(C)C)C(=O)NCC(=O)N[C@@H](Cc4ccccc4)C(=O)N[C@@H](CCSC)C(=O)N[C@@H](CCCNC(=N)N)C(=O)N[C@@H](CCCCN)C(=O)N2)NC(=O)[C@H](CSSC[C@@H](C(=O)N[C@@H](CCCCN)C(=O)N[C@@H](Cc2ccc(O)cc2)C(=O)N[C@H](C(=O)N[C@@H](Cc2cccc4ccccc24)C(N)=O)C(C)C)NC(=O)[C@H](Cc2c[nH]c4ccccc24)NC(=O)[C@H](CCCCN)NC(=O)[C@H](Cc2cnc[nH]2)NC(=O)[C@H]([C@@H](C)O)NC(=O)[C@H](CCCNC(=N)N)NC(=O)[C@H](CO)NC3=O)NC(=O)[C@H](CCCCN)NC(=O)[C@H](CC(=O)O)NC(=O)[C@H](CC(N)=O)NC(=O)[C@H](CC(=O)O)NC(=O)[C@@H]2CCCN2C1=O` [[1-Nal34]GpTx-1(1-34)] (H-DCLGFMRKCIPDNDKCCRPNLVCSRTHKWCKYV[1Nal]-NH2; disulfide 2-17, 9-23, 16-30), for which the results for the pIC50 against hNav1.7, against hNav1.3 and against hNav1.5 were 8.40, 8.15 and 5.73, respectively.

As for `CC[C@H](C)[C@@H]1NC(=O)[C@@H]2CSSC[C@@H]3NC(=O)[C@H](C(C)C)NC(=O)[C@H](CC(C)C)NC(=O)[C@H](CC(N)=O)NC(=O)[C@@H]4CCCN4C(=O)[C@H](CCCNC(=N)N)NC(=O)[C@H](CSSC[C@H](NC(=O)[C@@H](N)CC(=O)O)C(=O)N[C@@H](CC(C)C)C(=O)NCC(=O)N[C@@H](Cc4ccccc4)C(=O)N[C@@H](CCSC)C(=O)N[C@@H](CCCNC(=N)N)C(=O)N[C@@H](CCCCN)C(=O)N2)NC(=O)[C@H](CSSC[C@@H](C(=O)N[C@@H](CCCCN)C(=O)N[C@@H](Cc2ccc(O)cc2)C(=O)N[C@@H](CCC(N)=O)C(=O)N[C@@H](Cc2ccccc2)C(N)=O)NC(=O)[C@H](Cc2c[nH]c4ccccc24)NC(=O)[C@H](CCCCN)NC(=O)[C@H](Cc2c[nH]cn2)NC(=O)[C@H]([C@@H](C)O)NC(=O)[C@H](CCCNC(=N)N)NC(=O)[C@H](CO)NC3=O)NC(=O)[C@H](CCCCN)NC(=O)[C@H](CC(=O)O)NC(=O)[C@H](CC(N)=O)NC(=O)[C@H](CC(=O)O)NC(=O)[C@@H]2CCCN2C1=O` [[Gln33]GpTx-1(1-34)] (H-DCLGFMRKCIPDNDKCCRPNLVCSRTHKWCKYQF-NH2; disulfide 2-17, 9-23, 16-30), the pIC50 was 8.22 at hNav1.7, 8.00 against hNav1.3 and 5.08 against hNav1.5.

As to `CC[C@H](C)[C@@H]1NC(=O)[C@@H]2CSSC[C@@H]3NC(=O)[C@H](C(C)C)NC(=O)[C@H](CC(C)C)NC(=O)[C@H](CC(N)=O)NC(=O)[C@@H]4CCCN4C(=O)[C@H](CCCNC(=N)N)NC(=O)[C@H](CSSC[C@H](NC(=O)[C@@H](N)CC(=O)O)C(=O)N[C@@H](CC(C)C)C(=O)NCC(=O)N[C@@H](Cc4ccccc4)C(=O)N[C@@H](CCSC)C(=O)N[C@@H](CCCNC(=N)N)C(=O)N[C@@H](CCCCN)C(=O)N2)NC(=O)[C@H](CSSC[C@@H](C(=O)N[C@@H](CCCCN)C(=O)N[C@@H](Cc2ccc(O)cc2)C(=O)N[C@H](C(=O)N[C@@H](Cc2ccccc2)C(N)=O)C(C)C)NC(=O)[C@H](Cc2c[nH]c4ccccc24)NC(=O)[C@H](CCCCN)NC(=O)[C@H]([C@@H](C)O)NC(=O)[C@H](CCCCN)NC(=O)[C@H](CCCNC(=N)N)NC(=O)[C@H](CO)NC3=O)NC(=O)[C@H](CCCCN)NC(=O)[C@H](CC(=O)O)NC(=O)[C@H](CC(N)=O)NC(=O)[C@H](CC(=O)O)NC(=O)[C@@H]2CCCN2C1=O` [[Lys26;Thr27]GpTx-1(1-34)] (H-DCLGFMRKCIPDNDKCCRPNLVCSRKTKWCKYVF-NH2; disulfide 2-17, 9-23, 16-30), the pIC50 against hNav1.7 is 8.40; on hNav1.3, 7.80; against hNav1.5 it was 5.86.

Consider `CC[C@H](C)[C@H](NC(=O)[C@H](Cc1ccc(O)cc1)NC(=O)[C@H](CCCCN)NC(=O)[C@@H]1CSSC[C@@H]2NC(=O)[C@H](CCCCN)NC(=O)[C@H](CC(=O)O)NC(=O)[C@H](CC(N)=O)NC(=O)[C@H](CC(=O)O)NC(=O)[C@@H]3CCCN3C(=O)[C@H]([C@@H](C)CC)NC(=O)[C@@H]3CSSC[C@H](NC(=O)[C@H](C(C)C)NC(=O)[C@H](CC(C)C)NC(=O)[C@H](CC(N)=O)NC(=O)[C@@H]4CCCN4C(=O)[C@H](CCCNC(=N)N)NC(=O)[C@H](CSSC[C@H](NC(=O)[C@@H](N)CC(=O)O)C(=O)N[C@@H](CC(C)C)C(=O)NCC(=O)N[C@@H](Cc4ccccc4)C(=O)N[C@@H](CCSC)C(=O)N[C@@H](CCCNC(=N)N)C(=O)N[C@@H](CCCCN)C(=O)N3)NC2=O)C(=O)N[C@@H](CO)C(=O)N[C@@H](CCCNC(=N)N)C(=O)N[C@@H]([C@@H](C)O)C(=O)N[C@@H](Cc2c[nH]cn2)C(=O)N[C@@H](CCCCN)C(=O)N[C@@H](Cc2c[nH]c3ccccc23)C(=O)N1)C(=O)N[C@@H](Cc1ccccc1)C(N)=O` [[Ile33]GpTx-1(1-34)] (H-DCLGFMRKCIPDNDKCCRPNLVCSRTHKWCKYIF-NH2; disulfide 2-17, 9-23, 16-30), for which the values for the pIC50 on hNav1.7, on hNav1.3 and at hNav1.5 were 7.43, 6.99 and less than 5.00, respectively.
